Where “and” joins values, the source holds several entries; their conditions need not be identical. Equal entries are not always repeated. Where two headings read alike, the source gives them in different places. Blank lines part the entries; values can stand above or below the compound they belong to.
What was measured:
Assay type in all cases: cell-based
OX2R T135A = molecular target: T1, OX2R T135A (Homo sapiens, UniProt O43614, T135A); experiment: IP accumulation assay, OX2R T135A
T1 construct: FLAG; expressed in transfected cells; host or cells: HEK293
T1 sequence (O43614 whole entry T135A): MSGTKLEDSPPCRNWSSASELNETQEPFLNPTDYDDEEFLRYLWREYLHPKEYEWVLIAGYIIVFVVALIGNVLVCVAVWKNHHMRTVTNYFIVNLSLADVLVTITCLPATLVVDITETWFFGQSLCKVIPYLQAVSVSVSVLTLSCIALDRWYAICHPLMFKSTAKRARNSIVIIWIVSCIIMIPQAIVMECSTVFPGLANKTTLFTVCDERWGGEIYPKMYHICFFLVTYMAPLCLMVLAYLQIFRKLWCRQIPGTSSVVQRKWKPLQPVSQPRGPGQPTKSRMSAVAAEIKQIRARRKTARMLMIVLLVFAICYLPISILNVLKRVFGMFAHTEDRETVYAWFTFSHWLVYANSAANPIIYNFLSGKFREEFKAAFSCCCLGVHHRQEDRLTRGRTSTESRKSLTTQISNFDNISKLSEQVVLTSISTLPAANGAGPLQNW
Source text: The IP assay was adapted from a prior precedent. HEK293 cells were maintained in DMEM-high glucose (Millipore Sigma) supplemented with 5% fetal bovine serum (Corning) and penicillin-streptomycin (Millipore Sigma). Receptor constructs used were the full-length wild-type (or mutant) human OX1R and OX2R sequences cloned into pCDNA3. To enhance the Emax in the IP assay, a plasmid encoding full-length human Gαq subunit[66] was co-transfected into HEK293 cells with plasmids encoding orexin receptor constructs using Lipofectamine 3000 (Thermo Fisher). 24 h after transfection, the cells were plated on poly-D-lysine coated (Millipore Sigma) tissue culture-treated 96 well white plates with clear bottoms (Perkin Elmer) at 30,000 cells per well in Inositol-free DMEM (MP Biomedicals) supplemented with 5% fetal bovine serum, 4 mM L-glutamine (Millipore Sigma), penicillin-streptomycin, and about 5 uCi (5 ul) per ml myo-[2-3H] inositol (Perkin Elmer). The following day, the media was replaced with agonists that were diluted in HBSS (Millipore Sigma) containing 10 mM lithium chloride (Millipore Sigma) and incubated at 37 °C for 45 min. Then agonists were removed and cells were lysed on ice for 30 min with 10 mM formic acid (Millipore Sigma). […] The plates were read on a MicroBeta scintillation counter (Perkin Elmer) the following day. […]

OX1R S103T/A127T = molecular target: T2, OX1R S103T/A127T (Homo sapiens, UniProt O43613, A127T/S103T); experiment: IP accumulation assay, OX1R S103T/A127T
T2 construct: FLAG; expressed in transfected cells; host or cells: HEK293
T2 sequence (O43613 1-425 S103T/A127T): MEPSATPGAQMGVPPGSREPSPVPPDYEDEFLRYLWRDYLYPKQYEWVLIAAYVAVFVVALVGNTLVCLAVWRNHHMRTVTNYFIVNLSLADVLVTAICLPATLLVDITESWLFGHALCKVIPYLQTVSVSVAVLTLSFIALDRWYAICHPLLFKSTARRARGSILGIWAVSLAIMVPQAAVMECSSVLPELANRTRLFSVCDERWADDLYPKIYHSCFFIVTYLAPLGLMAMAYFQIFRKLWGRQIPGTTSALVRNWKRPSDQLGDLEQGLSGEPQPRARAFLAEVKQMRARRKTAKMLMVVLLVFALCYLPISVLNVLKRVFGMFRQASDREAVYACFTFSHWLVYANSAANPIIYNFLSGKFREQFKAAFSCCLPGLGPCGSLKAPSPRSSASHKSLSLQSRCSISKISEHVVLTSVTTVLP
Source text: The IP assay was adapted from a prior precedent. HEK293 cells were maintained in DMEM-high glucose (Millipore Sigma) supplemented with 5% fetal bovine serum (Corning) and penicillin-streptomycin (Millipore Sigma). Receptor constructs used were the full-length wild-type (or mutant) human OX1R and OX2R sequences cloned into pCDNA3. To enhance the Emax in the IP assay, a plasmid encoding full-length human Gαq subunit[66] was co-transfected into HEK293 cells with plasmids encoding orexin receptor constructs using Lipofectamine 3000 (Thermo Fisher). 24 h after transfection, the cells were plated on poly-D-lysine coated (Millipore Sigma) tissue culture-treated 96 well white plates with clear bottoms (Perkin Elmer) at 30,000 cells per well in Inositol-free DMEM (MP Biomedicals) supplemented with 5% fetal bovine serum, 4 mM L-glutamine (Millipore Sigma), penicillin-streptomycin, and about 5 uCi (5 ul) per ml myo-[2-3H] inositol (Perkin Elmer). The following day, the media was replaced with agonists that were diluted in HBSS (Millipore Sigma) containing 10 mM lithium chloride (Millipore Sigma) and incubated at 37 °C for 45 min. Then agonists were removed and cells were lysed on ice for 30 min with 10 mM formic acid (Millipore Sigma). 1.25 mg of poly-lysine coated YSI SPA beads (Perkin Elmer) was added to each well. The plates were mixed on an orbital shaker for 30 min. The plates were read on a MicroBeta scintillation counter (Perkin Elmer) the following day. IP accumulation assays on different constructs were performed in n ≥ 3 independent experiments (each done in duplicate), where n is shown in Supplementary Table 2.

OX2R F227A = molecular target: T3, OX2R F227A (Homo sapiens, UniProt O43614, F227A); experiment: β-arrestin PathHunter assay, OX2R F227A; details: for EC50: β-arrestin recruitment; for beta-arrestin recruitment fold change: F227A, listed as OxB
T3 construct: expressed in transfected cells; host or cells: CHO-K1 stably expressing EA β-arrestin2
T3 sequence (O43614 1-444 F227A): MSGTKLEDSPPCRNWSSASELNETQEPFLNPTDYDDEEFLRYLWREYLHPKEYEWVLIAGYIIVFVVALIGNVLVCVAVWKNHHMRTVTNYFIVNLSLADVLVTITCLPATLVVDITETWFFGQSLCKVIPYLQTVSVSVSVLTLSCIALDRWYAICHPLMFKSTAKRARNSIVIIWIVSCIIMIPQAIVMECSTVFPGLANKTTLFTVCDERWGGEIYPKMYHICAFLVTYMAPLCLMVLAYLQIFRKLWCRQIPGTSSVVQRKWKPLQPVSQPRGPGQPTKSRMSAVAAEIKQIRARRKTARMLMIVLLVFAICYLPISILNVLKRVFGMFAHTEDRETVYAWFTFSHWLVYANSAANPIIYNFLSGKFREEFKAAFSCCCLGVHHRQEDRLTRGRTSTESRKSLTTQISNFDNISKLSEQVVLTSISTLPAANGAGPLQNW
Procedure: (§1) β-Arrestin recruitment activity was measured by using the PathHunter system (DiscoveRX) according to the manufacturer’s instruction. Receptor constructs used were the full-length wild-type (or mutant) human OX2R sequences cloned into pCMV-ProLink (DiscoveRX). CHO-K1 cells stably expressing EA β-arrestin2 (DiscoveRX) were plated on 384 well white plates (Thermo Fisher) at 4000 cells/well in HamF12 (Wako Pure Chemical Industries) supplemented with 10% fetal bovine serum (Corning) and penicillin-streptomycin (Wako Pure Chemical Industries) and incubated overnight at 37 °C under 5% CO2. Cells were transfected with plasmids encoding wild type or each mutant ProLink-tagged human OX2R using FuGENE HD (Promega). […] Detection reagent was added and incubated for 1 h at room temperature. Luminescent signal was detected using an EnVision plate reader (PerkinElmer). β-arrestin assays on different constructs were performed in two or three independent experiments (each done in quadruplicate). Dose response curves (shown in Supplementary Fig. 8) were fitted to the three-parameter model ‘log(agonist) vs response’ in GraphPad Prism to determine pEC50 values.

OX2R H350A = molecular target: T4, OX2R H350A (Homo sapiens, UniProt O43614, H350A); experiment: β-arrestin PathHunter assay, OX2R H350A; details: β-arrestin recruitment
T4 construct: expressed in transfected cells; host or cells: CHO-K1 stably expressing EA β-arrestin2
T4 sequence (O43614 whole entry H350A): as the sequence (O43614 whole entry T135A) above, with A135T, H350A counted along it
Procedure: as §1

OX2R V353A = molecular target: T5, OX2R V353A (Homo sapiens, UniProt O43614, V353A); experiment: β-arrestin PathHunter assay, OX2R V353A; details: β-arrestin recruitment
T5 construct: expressed in transfected cells; host or cells: CHO-K1 cells stably expressing EA β-arrestin2 (DiscoveRX), transiently transfected with pCMV-ProLink OX2R
T5 sequence (O43614 whole entry V353A): as the sequence (O43614 whole entry T135A) above, with A135T, V353A counted along it
T5 sequence (P32121 whole entry partner): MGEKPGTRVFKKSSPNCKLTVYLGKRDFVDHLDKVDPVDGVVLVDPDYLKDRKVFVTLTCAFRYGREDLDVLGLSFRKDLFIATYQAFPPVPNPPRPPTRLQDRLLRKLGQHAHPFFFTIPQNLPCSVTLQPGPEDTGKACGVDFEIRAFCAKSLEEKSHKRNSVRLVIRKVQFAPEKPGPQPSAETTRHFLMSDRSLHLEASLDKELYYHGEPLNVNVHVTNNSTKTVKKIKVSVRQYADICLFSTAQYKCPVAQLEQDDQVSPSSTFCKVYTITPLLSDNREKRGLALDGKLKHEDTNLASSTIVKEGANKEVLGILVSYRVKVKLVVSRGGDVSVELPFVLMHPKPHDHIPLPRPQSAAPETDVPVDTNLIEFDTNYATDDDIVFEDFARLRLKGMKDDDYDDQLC
Procedure: as §1

- EC50 (OX2R T135A; IP accumulation): 0.58 µM
- Emax (OX2R T135A; relative to OX2R WT/TAK-925): 90
- activation at 100 µM (OX1R S103T/A127T; 0.75 h, TAK-925 conc (log, M) -4.00): 90.6%
- activation at 33.1 µM (OX1R S103T/A127T; 0.75 h, TAK-925 conc (log, M) -4.48): 102%
- activation at 11.2 µM (OX1R S103T/A127T; 0.75 h, TAK-925 conc (log, M) -4.95): 99.6%
- activation at 3.72 µM (OX1R S103T/A127T; 0.75 h, TAK-925 conc (log, M) -5.43): 94.2%
- activation at 1.23 µM (OX1R S103T/A127T; 0.75 h, TAK-925 conc (log, M) -5.91): 81.6%
- activation at 0.407 µM (OX1R S103T/A127T; 0.75 h, TAK-925 conc (log, M) -6.39): 58.2%
- activation at 0.138 µM (OX1R S103T/A127T; 0.75 h, TAK-925 conc (log, M) -6.86): 26.9%
- activation at 0.0151 µM (OX1R S103T/A127T; 0.75 h, TAK-925 conc (log, M) -7.82): 6.39%
- EC50 (OX1R S103T/A127T; IP accumulation): 0.3 µM
- Emax (OX1R S103T/A127T; normalized to OX1R S103T/A127T Emax): 100
- EC50 (OX2R F227A; read-out: EC50): > 30 µM
- EC50 (OX2R F227A; read-out: pEC50 (converted)): > 30.2 µM
- EC50 (OX2R H350A): 4.8 µM
- EC50 (OX2R V353A): 5.5 µM
Compound: COC(=O)N1CCC[C@H](NS(C)(=O)=O)[C@@H]1CO[C@H]1CC[C@@H](c2ccccc2)CC1 [TAK-925, methyl (2R,3S)−3-[(methylsulfonyl)amino]−2-{[(cis−4-phenylcyclohexyl)oxy]methyl}piperidine-1-carboxylate]

Compound: orexin B
- beta-arrestin recruitment fold change (OX2R F227A; OxB concentration -6.00 (log, M)): 9.362 fold and 8.115 fold and 7.068 fold and 6.668 fold
- beta-arrestin recruitment fold change (OX2R F227A; OxB concentration -6.52 (log, M)): 5.797 fold and 5.207 fold and 4.992 fold and 3.983 fold
- beta-arrestin recruitment fold change (OX2R F227A; OxB concentration -7.00 (log, M)): 2.141 fold and 2.264 fold and 1.690 fold and 2.115 fold
- beta-arrestin recruitment fold change (OX2R F227A; OxB concentration -7.52 (log, M)): 0.997 fold and 1.239 fold and 0.840 fold and 1.032 fold
- beta-arrestin recruitment fold change (OX2R F227A; OxB concentration -8.00 (log, M)): 0.797 fold and 0.852 fold and 0.855 fold and 0.772 fold
- beta-arrestin recruitment fold change (OX2R F227A; OxB concentration -8.52 (log, M)): 0.707 fold and 0.923 fold and 0.738 fold and 0.787 fold
- beta-arrestin recruitment fold change (OX2R F227A; OxB concentration -9.00 (log, M)): 0.670 fold and 0.812 fold and 0.735 fold and 0.836 fold
- beta-arrestin recruitment fold change (OX2R F227A; OxB concentration -10.00 (log, M)): 0.813 fold and 0.979 fold and 0.709 fold and 0.989 fold

— article PMC9133036 (Nature Communications, 2022)
